# Data published in the NIST ThermoML archive (doi:10.1016/j.jct.2012.02.015).
# ± gives the expanded uncertainty stated by the source.
# Conditions: 101.33 kPa, Liquid, Alternating current cell with electrodes
SMILES,electrical conductivity (1173 K) [S/m],electrical conductivity (1184 K) [S/m],electrical conductivity (1194 K) [S/m],electrical conductivity (1206 K) [S/m],electrical conductivity (1217 K) [S/m],electrical conductivity (1232 K) [S/m],electrical conductivity (1244 K) [S/m],electrical conductivity (1258 K) [S/m],electrical conductivity (1269 K) [S/m],electrical conductivity (1126 K) [S/m],electrical conductivity (1198 K) [S/m],electrical conductivity (1210 K) [S/m],electrical conductivity (1233 K) [S/m],electrical conductivity (1131 K) [S/m],electrical conductivity (1136 K) [S/m],electrical conductivity (1151 K) [S/m],electrical conductivity (1169 K) [S/m],electrical conductivity (1190 K) [S/m],electrical conductivity (1221 K) [S/m],electrical conductivity (1229 K) [S/m],also measured
[Br-].[Rb+] [rubidium bromide],151 ± 2,152 ± 2,153 ± 2,154 ± 2,154 ± 2,155 ± 2,156 ± 2,157 ± 2,157 ± 2,–,–,–,–,–,–,–,–,–,–,–,–
[I-].[Rb+] [rubidium iodide (RbI)],–,–,–,–,–,–,–,–,–,120 ± 1,127 ± 1,128 ± 1,130 ± 1,–,–,–,–,–,–,–,electrical conductivity (1154 K): 122 ± 1 S/m; electrical conductivity (1166 K): 124 ± 1 S/m; electrical conductivity (1188 K): 126 ± 1 S/m; electrical conductivity (1216 K): 128 ± 1 S/m; electrical conductivity (1248 K): 132 ± 1 S/m; electrical conductivity (1260 K): 133 ± 1 S/m; electrical conductivity (1266 K): 133 ± 1 S/m; electrical conductivity (1297 K): 135 ± 1 S/m; electrical conductivity (1309 K): 136 ± 1 S/m
[I-].[K+] [potassium iodide],–,–,–,–,–,–,–,–,167 ± 2,160 ± 2,–,–,–,–,–,–,–,–,–,–,electrical conductivity (1109 K): 158 ± 2 S/m; electrical conductivity (1143 K): 161 ± 2 S/m; electrical conductivity (1152 K): 163 ± 2 S/m; electrical conductivity (1160 K): 164 ± 2 S/m; electrical conductivity (1170 K): 165 ± 2 S/m; electrical conductivity (1176 K): 165 ± 2 S/m; electrical conductivity (1186 K): 166 ± 2 S/m; electrical conductivity (1203 K): 166 ± 2 S/m; electrical conductivity (1225 K): 167 ± 2 S/m; electrical conductivity (1236 K): 167 ± 2 S/m; electrical conductivity (1246 K): 168 ± 2 S/m; electrical conductivity (1252 K): 167 ± 2 S/m
[Br-].[K+] [potassium bromide],–,–,–,–,–,–,–,–,–,–,201 ± 2,202 ± 2,204 ± 2,190 ± 2,191 ± 2,194 ± 2,196 ± 2,200 ± 2,203 ± 2,204 ± 2,electrical conductivity (1237 K): 205 ± 2 S/m; electrical conductivity (1245 K): 205 ± 2 S/m
[F-].[Li+] [lithium fluoride],880 ± 9,886 ± 9,890 ± 9,896 ± 9,900 ± 9,907 ± 9,911 ± 9,916 ± 9,918 ± 9,–,892 ± 9,897 ± 9,907 ± 9,855 ± 9,858 ± 9,868 ± 9,877 ± 9,888 ± 9,899 ± 9,905 ± 9,electrical conductivity (1237 K): 908 ± 9 S/m; electrical conductivity (1245 K): 911 ± 9 S/m; electrical conductivity (1267 K): 918 ± 9 S/m; electrical conductivity (1283 K): 923 ± 9 S/m
